In the NIST ThermoML archive (doi:10.1021/je300945r):

F/C=C/C(F)(F)F [trans-1,3,3,3-tetrafluoropropene]
Details | mass density [kg/m3]
302.78 K, 433.9 kPa, Gas, isochoric method | 22.222
303.13 K, 802 kPa, Liquid, Vibrating tube method | 1145.9
303.13 K, 1676 kPa, Liquid, Vibrating tube method | 1151.1
303.13 K, 4747 kPa, Liquid, Vibrating tube method | 1167.3
303.13 K, 7769 kPa, Liquid, Vibrating tube method | 1181.3
303.13 K, 8772 kPa, Liquid, Vibrating tube method | 1185.8
303.14 K, 2678 kPa, Liquid, Vibrating tube method | 1156.8
303.14 K, 3716 kPa, Liquid, Vibrating tube method | 1162.3
303.14 K, 5757 kPa, Liquid, Vibrating tube method | 1172.2
303.14 K, 6764 kPa, Liquid, Vibrating tube method | 1176.9
303.14 K, 9773 kPa, Liquid, Vibrating tube method | 1190
303.14 K, 10775 kPa, Liquid, Vibrating tube method | 1194.1
303.14 K, 11778 kPa, Liquid, Vibrating tube method | 1197.9
303.14 K, 12794 kPa, Liquid, Vibrating tube method | 1201.7
303.14 K, 13809 kPa, Liquid, Vibrating tube method | 1205.3
303.14 K, 14819 kPa, Liquid, Vibrating tube method | 1209.1
303.14 K, 15824 kPa, Liquid, Vibrating tube method | 1212.5
303.14 K, 16838 kPa, Liquid, Vibrating tube method | 1216
303.14 K, 17845 kPa, Liquid, Vibrating tube method | 1219.4
303.14 K, 18856 kPa, Liquid, Vibrating tube method | 1222.6
303.14 K, 19875 kPa, Liquid, Vibrating tube method | 1225.8
303.14 K, 20888 kPa, Liquid, Vibrating tube method | 1228.8
303.14 K, 21899 kPa, Liquid, Vibrating tube method | 1232
303.14 K, 22909 kPa, Liquid, Vibrating tube method | 1234.9
303.14 K, 23916 kPa, Liquid, Vibrating tube method | 1238
303.14 K, 24920 kPa, Liquid, Vibrating tube method | 1240.8
303.14 K, 25928 kPa, Liquid, Vibrating tube method | 1243.5
303.14 K, 26942 kPa, Liquid, Vibrating tube method | 1246.4
303.14 K, 27943 kPa, Liquid, Vibrating tube method | 1249.1
303.14 K, 28955 kPa, Liquid, Vibrating tube method | 1251.6
303.14 K, 29958 kPa, Liquid, Vibrating tube method | 1254.5
303.14 K, 30966 kPa, Liquid, Vibrating tube method | 1256.7
303.15 K, 31972 kPa, Liquid, Vibrating tube method | 1259.5
303.15 K, 32984 kPa, Liquid, Vibrating tube method | 1262
303.15 K, 33993 kPa, Liquid, Vibrating tube method | 1264.4
312.59 K, 574.7 kPa, Gas, isochoric method | 28.571
312.6 K, 574.7 kPa, Gas, isochoric method | 28.571
312.61 K, 397.1 kPa, Gas, isochoric method | 19.231
312.61 K, 397.2 kPa, Gas, isochoric method | 19.231
312.72 K, 168.6 kPa, Gas, isochoric method | 7.634
312.76 K, 451.9 kPa, Gas, isochoric method | 21.739
312.76 K, 452 kPa, Gas, isochoric method | 21.739
312.8 K, 74.3 kPa, Gas, isochoric method | 3.311
312.84 K, 268.5 kPa, Gas, isochoric method | 12.5
313.13 K, 630.3 kPa, Gas, isochoric method | 32.258
313.13 K, 630.4 kPa, Gas, isochoric method | 32.258
313.14 K, 775 kPa, Liquid, Vibrating tube method | 1109.9
313.14 K, 1656 kPa, Liquid, Vibrating tube method | 1116.2
313.14 K, 2657 kPa, Liquid, Vibrating tube method | 1122.9
313.14 K, 3683 kPa, Liquid, Vibrating tube method | 1129.4
313.14 K, 5739 kPa, Liquid, Vibrating tube method | 1141.4
313.14 K, 6749 kPa, Liquid, Vibrating tube method | 1146.8
313.14 K, 7763 kPa, Liquid, Vibrating tube method | 1152.1
313.14 K, 8784 kPa, Liquid, Vibrating tube method | 1157.1
313.14 K, 9798 kPa, Liquid, Vibrating tube method | 1161.9
313.14 K, 10800 kPa, Liquid, Vibrating tube method | 1166.5
313.14 K, 11816 kPa, Liquid, Vibrating tube method | 1170.9
313.14 K, 12819 kPa, Liquid, Vibrating tube method | 1175.2
313.14 K, 13831 kPa, Liquid, Vibrating tube method | 1179.3
313.14 K, 14845 kPa, Liquid, Vibrating tube method | 1183.4
313.14 K, 15848 kPa, Liquid, Vibrating tube method | 1187.2
313.14 K, 16855 kPa, Liquid, Vibrating tube method | 1191.1
313.14 K, 18874 kPa, Liquid, Vibrating tube method | 1198.3
313.14 K, 19890 kPa, Liquid, Vibrating tube method | 1201.9
313.14 K, 20909 kPa, Liquid, Vibrating tube method | 1205.3
313.14 K, 21923 kPa, Liquid, Vibrating tube method | 1208.7
313.14 K, 22937 kPa, Liquid, Vibrating tube method | 1212
313.14 K, 23947 kPa, Liquid, Vibrating tube method | 1215.2
313.14 K, 25962 kPa, Liquid, Vibrating tube method | 1221.3
313.14 K, 26971 kPa, Liquid, Vibrating tube method | 1224.3
313.14 K, 28984 kPa, Liquid, Vibrating tube method | 1230.1
313.15 K, 4723 kPa, Liquid, Vibrating tube method | 1135.7
313.15 K, 17865 kPa, Liquid, Vibrating tube method | 1194.7
313.15 K, 24948 kPa, Liquid, Vibrating tube method | 1218.2
313.15 K, 27973 kPa, Liquid, Vibrating tube method | 1227.2
313.15 K, 30002 kPa, Liquid, Vibrating tube method | 1232.9
313.15 K, 31006 kPa, Liquid, Vibrating tube method | 1235.7
313.15 K, 32010 kPa, Liquid, Vibrating tube method | 1238.4
313.15 K, 33010 kPa, Liquid, Vibrating tube method | 1241
313.15 K, 34013 kPa, Liquid, Vibrating tube method | 1243.6
323.1 K, 76.8 kPa, Gas, isochoric method | 3.311
323.1 K, 278.4 kPa, Gas, isochoric method | 12.346
323.1 K, 470.5 kPa, Gas, isochoric method | 21.739
323.11 K, 174.6 kPa, Gas, isochoric method | 7.634
323.11 K, 413.3 kPa, Gas, isochoric method | 19.231
323.11 K, 413.4 kPa, Gas, isochoric method | 19.231
323.11 K, 658.4 kPa, Gas, isochoric method | 32.258
323.12 K, 836.8 kPa, Gas, isochoric method | 43.478
323.14 K, 1009 kPa, Liquid, Vibrating tube method | 1071.8
323.14 K, 1595 kPa, Liquid, Vibrating tube method | 1077.1
323.14 K, 2609 kPa, Liquid, Vibrating tube method | 1085.6
323.14 K, 3638 kPa, Liquid, Vibrating tube method | 1093.6
323.14 K, 4686 kPa, Liquid, Vibrating tube method | 1101.1
323.14 K, 5705 kPa, Liquid, Vibrating tube method | 1108
323.14 K, 6730 kPa, Liquid, Vibrating tube method | 1114.5
323.14 K, 7748 kPa, Liquid, Vibrating tube method | 1120.7
